Experiment: Inhibition of BTK in human TMD8 cells assessed as reduction in cell proliferation incubated for 24 hrs by CCK-8 assay

- IC50: 4.36 µM
Compound: C=CC(=O)Nc1cccc(Nc2ncnc(Nc3ccc(C(=O)N4CCCCC4)cc3)n2)c1
